Data taken from PubChem BioAssay AID248 (DTP/NCI, 2004).
Inconclusive results and toxic doses are left out. Cut-off read from the data, not from the text of the source: active = T/C of 150% or more; inactive = T/C below 125%.

Tested on: L1210 leukemia ip in BDF1 mice, survival T/C
Experiment: NCI In Vivo Anticancer Drug Screen. Data for tumor model L1210 Leukemia (intraperitoneal) in B6D2F1 (BDF1) mice
Settings: endpoint: mean survival time, higher = longer survival
In short: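 Tumor was transplanted into mice, which were then dosed with test compound or vehicle alone. Survival was recorded for each group, and the treated figure was expressed relative to the control figure.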

[1] = dose: 100.0 mg/kg/injection, schedule: Q01DX001 (ip), vehicle: saline
[2] = dose: 200.0 mg/kg/injection, schedule: Q01DX001 (ip), vehicle: saline
[3] = dose: 400.0 mg/kg/injection, schedule: Q01DX001 (ip), vehicle: saline
[4] = dose: 75.0 mg/kg/injection, schedule: Q01DX001 (ip), vehicle: Klucel (hydroxypropylcellulose) (HPC)
[5] = dose: 150.0 mg/kg/injection, schedule: Q01DX001 (ip), vehicle: Klucel (hydroxypropylcellulose) (HPC)
[6] = dose: 50.0 mg/kg/injection, schedule: Q01DX001 (sc), vehicle: steriod suspending solution
[7] = dose: 100.0 mg/kg/injection, schedule: Q01DX001 (sc), vehicle: steriod suspending solution
[8] = dose: 200.0 mg/kg/injection, schedule: Q01DX001 (sc), vehicle: steriod suspending solution
[9] = dose: 100.0 mg/kg/injection, schedule: Q04DX003 (ip), vehicle: saline
[10] = dose: 200.0 mg/kg/injection, schedule: Q04DX003 (ip), vehicle: saline
[11] = dose: 400.0 mg/kg/injection, schedule: Q04DX003 (ip), vehicle: saline
[12] = dose: 50.0 mg/kg/injection, schedule: Q01DX009 (ip), vehicle: Klucel (hydroxypropylcellulose) (HPC)
[13] = dose: 100.0 mg/kg/injection, schedule: Q01DX001 (ip), vehicle: Klucel (hydroxypropylcellulose) (HPC)
[14] = dose: 200.0 mg/kg/injection, schedule: Q01DX001 (ip), vehicle: Klucel (hydroxypropylcellulose) (HPC)
[15] = dose: 400.0 mg/kg/injection, schedule: Q01DX001 (ip), vehicle: Klucel (hydroxypropylcellulose) (HPC)

Measured: T/C

Cc1cccc([N+](=O)[O-])c1N
inactive: dose: 50.0 mg/kg/injection, schedule: Q01DX001 (ip), vehicle: carboxymethylcellulose (CMC) 109 % of control | dose: 100.0 mg/kg/injection, schedule: Q01DX001 (ip), vehicle: carboxymethylcellulose (CMC) 109 % of control | dose: 200.0 mg/kg/injection, schedule: Q01DX001 (ip), vehicle: carboxymethylcellulose (CMC) 113 % of control | dose: 400.0 mg/kg/injection, schedule: Q01DX001 (ip), vehicle: carboxymethylcellulose (CMC) 115 % of control

O=S(=O)(/N=C1/c2ccccc2/C(=N/S(=O)(=O)c2ccccc2)C2CC=CCC12)c1ccccc1 (configuration not stated)
inactive: dose: 25.0 mg/kg/injection, schedule: Q01DX001 (ip), vehicle: saline sonified 94 % of control | dose: 50.0 mg/kg/injection, schedule: Q01DX001 (ip), vehicle: saline sonified 95 % of control | dose: 100.0 mg/kg/injection, schedule: Q01DX001 (ip), vehicle: saline sonified 92 % of control

COC1=C(C)CCC1=O
inactive: dose: 37.5 mg/kg/injection, schedule: Q04DX002 (ip), vehicle: saline 106 % of control | dose: 75.0 mg/kg/injection, schedule: Q04DX002 (ip), vehicle: saline 95 % of control | dose: 150.0 mg/kg/injection, schedule: Q04DX002 (ip), vehicle: saline 98 % of control | dose: 300.0 mg/kg/injection, schedule: Q04DX002 (ip), vehicle: saline 88 % of control

CC(=O)Nc1c2ccccc2nc2ccccc12
inactive: dose: 100.0 mg/kg/injection, schedule: Q04DX002 (ip), vehicle: saline with Tween-80 90 % of control | dose: 200.0 mg/kg/injection, schedule: Q04DX002 (ip), vehicle: saline with Tween-80 97 % of control | dose: 400.0 mg/kg/injection, schedule: Q04DX002 (ip), vehicle: saline with Tween-80 90 % of control

COc1cc(C2=C3C(=O)OCC3Cc3ccccc32)ccc1OCc1ccccc1 (configuration not stated)
inactive: [1] 97 % of control | [2] 95 % of control | [3] 98 % of control

O=C1c2cc(-c3ccccc3)ccc2C(c2ccccc2)C1NC1CCCCC1 (configuration not stated)
inactive: dose: 37.5 mg/kg/injection, schedule: Q01DX001 (ip), vehicle: Klucel (hydroxypropylcellulose) (HPC) 89 % of control | [4] 89 % of control | [5] 89 % of control

O=C(CCCC(=O)NNC(=S)Nc1ccccc1Cl)NNC(=S)Nc1ccccc1Cl
inactive: dose: 50.0 mg/kg/injection, schedule: Q01DX001 (ip), vehicle: saline 96 % of control | [1] 96 % of control | [2] 93 % of control | [3] 93 % of control

COc1cc(/C=C/C(=O)c2ccc3c(c2)OCO3)ccc1OCc1ccccc1
inactive: dose: 100.0 mg/kg/injection, schedule: Q04DX003 (ip), vehicle: water 93 % of control | dose: 200.0 mg/kg/injection, schedule: Q04DX003 (ip), vehicle: water 91 % of control | dose: 400.0 mg/kg/injection, schedule: Q04DX003 (ip), vehicle: water 93 % of control

CC(O)C1CCC2C3CCC4CC(SC(=O)c5ccccc5)CCC4(C)C3CCC12C (configuration not stated)
inactive: [6] 103 % of control | [7] 97 % of control | [8] 97 % of control | dose: 400.0 mg/kg/injection, schedule: Q01DX001 (sc), vehicle: steriod suspending solution 94 % of control

CC1CC(C)OP(Oc2ccccc2)O1 (configuration not stated)
inactive: [1] 110 % of control | [2] 96 % of control | [3] 98 % of control

NOCCCCCCON
inactive: [9] 95 % of control | [10] 97 % of control | [11] 95 % of control

CCOc1ccc(Br)cc1/C=C/C(C)=O
inactive: dose: 100.0 mg/kg/injection, schedule: Q01DX009 (ip), vehicle: saline 103 % of control | [9] 95 % of control | dose: 200.0 mg/kg/injection, schedule: Q01DX009 (ip), vehicle: saline 98 % of control | [10] 111 % of control | dose: 400.0 mg/kg/injection, schedule: Q01DX009 (ip), vehicle: saline 90 % of control | [11] 97 % of control

NC(=O)N/N=C1/CCN2CCCc3cccc1c32
inactive: dose: 12.5 mg/kg/injection, schedule: Q01DX009 (ip), vehicle: Klucel (hydroxypropylcellulose) (HPC) 95 % of control | dose: 25.0 mg/kg/injection, schedule: Q01DX009 (ip), vehicle: Klucel (hydroxypropylcellulose) (HPC) 103 % of control | dose: 25.0 mg/kg/injection, schedule: Q04DX003 (ip), vehicle: Klucel (hydroxypropylcellulose) (HPC) 103 % of control | [12] 93 % of control | dose: 50.0 mg/kg/injection, schedule: Q04DX003 (ip), vehicle: Klucel (hydroxypropylcellulose) (HPC) 97 % of control | dose: 100.0 mg/kg/injection, schedule: Q04DX003 (ip), vehicle: Klucel (hydroxypropylcellulose) (HPC) 95 % of control

CC1=C(CO)C(=O)O[C@@H]([C@@H](C)[C@H]2CC[C@H]3[C@@H]4C[C@H]5O[C@]56[C@@H](O)C=CC(=O)[C@]6(C)[C@H]4CC[C@]23C)C1
inactive: dose: 10.0 mg/kg/injection, schedule: Q01DX Z (ip), vehicle: carboxymethylcellulose (CMC) 98 % of control | dose: 20.0 mg/kg/injection, schedule: Q01DX Z (ip), vehicle: carboxymethylcellulose (CMC) 101 % of control | [6] 103 % of control | [7] 100 % of control | [8] 103 % of control

Nc1nc(N)c2nc(COc3ccccc3)cnc2n1
inactive: dose: 20.0 mg/kg/injection, schedule: Q01DX009 (ip), vehicle: Klucel (hydroxypropylcellulose) (HPC) 98 % of control | dose: 40.0 mg/kg/injection, schedule: Q01DX009 (ip), vehicle: Klucel (hydroxypropylcellulose) (HPC) 107 % of control | dose: 80.0 mg/kg/injection, schedule: Q01DX009 (ip), vehicle: Klucel (hydroxypropylcellulose) (HPC) 107 % of control

CC(O)c1ccc2ccccc2c1 (configuration not stated)
inactive: dose: 100.0 mg/kg/injection, schedule: Q04DX003 (ip), vehicle: saline with Tween-80 98 % of control | dose: 200.0 mg/kg/injection, schedule: Q04DX003 (ip), vehicle: saline with Tween-80 101 % of control | dose: 400.0 mg/kg/injection, schedule: Q04DX003 (ip), vehicle: saline with Tween-80 96 % of control

CC(C)NC(=O)NC(C)C
inactive: [13] 100 % of control | [14] 96 % of control | [15] 94 % of control

CCCCCCCCCCCCCSCCSCCCCCCCCCCCCC
inactive: [13] 96 % of control | [14] 86 % of control | [15] 96 % of control

COC(=O)C1C(C)CCCC1(C)c1ccccc1 (configuration not stated)
inactive: dose: 100.0 mg/kg/injection, schedule: Q04DX002 (ip), vehicle: gum acacia 103 % of control | dose: 200.0 mg/kg/injection, schedule: Q04DX002 (ip), vehicle: gum acacia 106 % of control | dose: 400.0 mg/kg/injection, schedule: Q04DX002 (ip), vehicle: gum acacia 95 % of control

CCOC(=O)c1ccc(N=Cc2ccccc2O)cc1
inactive: [12] 98 % of control | [4] 88 % of control | dose: 100.0 mg/kg/injection, schedule: Q01DX009 (ip), vehicle: Klucel (hydroxypropylcellulose) (HPC) 89 % of control | [5] 105 % of control | dose: 200.0 mg/kg/injection, schedule: Q01DX009 (ip), vehicle: Klucel (hydroxypropylcellulose) (HPC) 106 % of control | dose: 300.0 mg/kg/injection, schedule: Q01DX001 (ip), vehicle: Klucel (hydroxypropylcellulose) (HPC) 88 % of control

CC[N+](C)(CC)CCCOC(=O)c1ccccc1Oc1ccc(C)cc1
inactive: [9] 104 % of control | [10] 93 % of control
